Measurements taken from ChEMBL document CHEMBL1137578, “Small molecules block the polymerization of Z alpha1-antitrypsin and increase the clearance of intracellular aggregates” (2007).
Calls of active or inactive are those of the source. The calls are words filed in the database; no cut-off is given here.

Columns and labels:
[1] = species on record: Homo sapiens; test: Inhibition of polymerization of alpha-1-antitrypsin Z mutant at 10 uM
[2] = species on record: Homo sapiens; test: Inhibition of polymerization of alpha-1-antitrypsin Z mutant at 5 uM
[3] = species on record: Homo sapiens; test: Inhibition of polymerization of alpha-1-antitrypsin Z mutant
[4] = species on record: Homo sapiens; test: Inhibition of polymerization of alpha-1-antitrypsin Z mutant at 50 uM
[5] = species on record: Homo sapiens; test: Inhibition of polymerization of alpha-1-antitrypsin Z mutant at 20 uM
[6] = biological target: T1, Alpha-1-antichymotrypsin (Homo sapiens) (UniProt P01011); test: Inhibition of polymerization of alpha-1 antichymotrypsin at 200 uM
T1 sequence (whole entry): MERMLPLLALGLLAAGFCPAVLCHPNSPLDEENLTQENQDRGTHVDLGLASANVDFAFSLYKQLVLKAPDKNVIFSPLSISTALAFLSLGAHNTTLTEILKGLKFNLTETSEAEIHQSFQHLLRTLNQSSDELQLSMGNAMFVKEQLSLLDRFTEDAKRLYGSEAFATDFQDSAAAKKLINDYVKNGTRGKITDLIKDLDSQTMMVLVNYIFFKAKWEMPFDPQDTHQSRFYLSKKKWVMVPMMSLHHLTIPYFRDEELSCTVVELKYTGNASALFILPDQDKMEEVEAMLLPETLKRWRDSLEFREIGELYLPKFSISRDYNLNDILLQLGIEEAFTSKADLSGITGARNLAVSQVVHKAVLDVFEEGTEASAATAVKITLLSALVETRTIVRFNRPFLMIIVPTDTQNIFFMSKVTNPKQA

[7] = (§1) Reduction in intracellular accumulation of alpha-1 antitrypsin Z mutant in mouse Hepa1a cells at 100 uM after 16 hrs; assay type: functional; parameters: scale not given: the % may be the effect or the level left
[8] = species on record: Mus musculus; test: as §1; assay type: functional

## Cc1ccc(S(=O)(=O)Nc2cc(C)c(O)c(Sc3nnc[nH]3)c2)cc1
[1]
  Activity: Active
[2]
  Activity: Active

## Cc1cc(NS(=O)(=O)c2ccccc2)cc(Cl)c1O
[1]
  Activity: Active

## NS(=O)(=O)c1ccc(Nc2nc(-c3ccc(O)cc3O)cs2)cc1
[3]
  Activity: Active

## Cc1cc(S(=O)(=O)Nc2cc(C)c(O)c(C)c2)c(C)s1
[4]
  Activity: Active
[5]
  Activity: Active
[6]
  Activity: inactive
[7]
  Activity: 70%

## COc1c(C)cc(NS(=O)(=O)c2ccc(SC)cc2)cc1C
[8]
  Activity: inactive

## Cc1ccc(S(=O)(=O)Nc2cc(C)c(O)c(Sc3nnc(C)[nH]3)c2)cc1
[1]
  Activity: Active
[8]
  Activity: inactive
[2]
  Activity: Active

## Cc1cc(NS(=O)(=O)c2cccc([N+](=O)[O-])c2)cc(C)c1O
[1]
  Activity: Active

## Cc1cc(NS(=O)(=O)c2ccc([N+](=O)[O-])cc2)cc(C)c1O
[1]
  Activity: Active

## COc1ccccc1Nc1ccc2c(O)cc(S(=O)(=O)O)cc2c1
[3]
  Activity: Active

## Cc1cc(NS(=O)(=O)c2ccccc2)cc(Br)c1O
[1]
  Activity: Active
[2]
  Activity: Active

## O=C1c2ccc(O)cc2OC(c2ccc(O)c(O)c2O)C1O (configuration not stated)
[3]
  Activity: Active

## Oc1ccc(-c2n[nH]cc2-c2ccn(-c3ccccc3)n2)c(O)c1O
[1]
  Activity: Active

## Oc1ccc(-c2n[nH]cc2-c2cnn(-c3ccccc3)c2)c(O)c1O
[1]
  Activity: Active

## Cc1cc(NS(=O)(=O)c2ccccc2)cc(C)c1O
[4]
  Activity: Active

## CSc1ccc(C(Nc2ccccn2)c2oc(CO)cc(=O)c2O)cc1 (configuration not stated)
[3]
  Activity: Active
